Source: article PMC8954214, “Preparation, Identification, Molecular Docking Study and Protective Function on HUVECs of Novel ACE Inhibitory Peptides from Protein Hydrolysate of Skipjack Tuna Muscle” (Marine Drugs, 2022)
Where two headings read alike, the source gives them in different places. Where a SMILES comes first, the peptide text is derived from it.

What was measured:
ACE [1] = molecular target: T1, ACE (Oryctolagus cuniculus, UniProt P12822); parameters: method as in 3 sources, ref 47 = [47]; doi:10.1016/j.lwt.2016.08.047; 47. Wang X. Chen H. Fu X. Li S. Wei J. A novel antioxidant and ACE inhibitory peptide from rice bran protein: Biochemical characterization and molecular docking study LWT-Food Sci.Technol. 2017 75 93 ||| ref 12 = [12]; PMID 31353484; doi:10.1111/jfbc.12572; 12. Fan H. Liao W. Wu J. Molecular interactions, bioavailability, and cellular mechanisms of angiotensin-converting enzyme inhibitory peptides J. Food Biochem. 2019 43 e12572 10.1111/jfbc.12572 313534 ||| ref 51 = [51]; PMID 28873590; doi:10.1016/j.foodchem.2017.06.112; 51. Abdelhedi O. Nasri R. Mora L. Jridi M. Toldra F. Nasri M. In silico analysis and molecular docking study of angiotensin I-converting enzyme inhibitory peptides from smooth-hound viscera protein hy; details: docking; cited from earlier work
T1 construct: purchased Sigma-Aldrich (Shanghai) Trading Co., Ltd. A6778
T1 sequence (P12822 34-1310): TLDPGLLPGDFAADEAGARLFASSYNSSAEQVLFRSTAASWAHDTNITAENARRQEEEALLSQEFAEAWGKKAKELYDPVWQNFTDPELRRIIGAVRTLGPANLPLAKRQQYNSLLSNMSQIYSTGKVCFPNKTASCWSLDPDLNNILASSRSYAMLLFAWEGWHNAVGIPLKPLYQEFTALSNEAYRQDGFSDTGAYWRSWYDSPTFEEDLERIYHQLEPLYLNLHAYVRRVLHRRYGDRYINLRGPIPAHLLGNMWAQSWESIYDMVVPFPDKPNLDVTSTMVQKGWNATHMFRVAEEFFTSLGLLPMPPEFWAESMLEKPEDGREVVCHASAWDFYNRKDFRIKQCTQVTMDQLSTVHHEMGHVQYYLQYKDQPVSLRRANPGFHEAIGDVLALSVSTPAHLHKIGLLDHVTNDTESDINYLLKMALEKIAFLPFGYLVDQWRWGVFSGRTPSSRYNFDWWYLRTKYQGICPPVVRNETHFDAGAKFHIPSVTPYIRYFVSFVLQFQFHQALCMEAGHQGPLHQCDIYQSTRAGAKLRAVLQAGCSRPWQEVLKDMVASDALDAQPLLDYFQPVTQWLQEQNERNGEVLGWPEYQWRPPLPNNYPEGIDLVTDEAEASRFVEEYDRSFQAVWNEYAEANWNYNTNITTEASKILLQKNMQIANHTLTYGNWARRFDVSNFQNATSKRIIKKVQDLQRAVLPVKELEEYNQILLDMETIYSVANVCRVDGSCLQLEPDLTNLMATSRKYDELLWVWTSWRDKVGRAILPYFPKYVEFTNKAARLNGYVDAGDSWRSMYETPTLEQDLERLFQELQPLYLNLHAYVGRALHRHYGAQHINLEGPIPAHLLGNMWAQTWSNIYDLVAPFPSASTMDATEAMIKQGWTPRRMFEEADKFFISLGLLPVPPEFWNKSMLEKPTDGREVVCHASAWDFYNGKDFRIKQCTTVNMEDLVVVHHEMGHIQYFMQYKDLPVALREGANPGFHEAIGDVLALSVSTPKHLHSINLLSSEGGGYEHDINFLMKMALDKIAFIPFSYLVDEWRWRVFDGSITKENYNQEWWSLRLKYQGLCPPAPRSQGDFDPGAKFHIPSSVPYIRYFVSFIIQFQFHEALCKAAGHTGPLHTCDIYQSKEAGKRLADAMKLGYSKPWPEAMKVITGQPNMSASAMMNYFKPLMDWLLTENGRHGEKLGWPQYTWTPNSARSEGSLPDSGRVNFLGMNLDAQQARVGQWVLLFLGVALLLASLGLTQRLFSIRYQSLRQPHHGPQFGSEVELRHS

ACE [2] = molecular target: T1, ACE; details: cited from earlier work
Description: Among these peptides, ACEi peptides represent a promising alternative to synthetic drugs to control hypertension. For instance, canary seed peptides (CSP) have great potential as anti-hypertensive and anti-obesity agents due to their inhibition activity on ACE and pancreatic lipase, and their non-competitive inhibitory activity was due to their destabilization of the transition state and Zn(II) coordination in ACE [13]. […] Auwal et al. illustrated that branched aliphatic or dicarboxylic amino acids (Val, Ala, Ile, and Leu) at the N-terminus could strengthen ACEi ability of peptides. Then, Val residue at the N-terminus of TMAP2 could improve its ACEi ability. […] Therefore, Ser residue, especially its hydroxyl group, should play a vital effect in the ACEi capability of ...

[3] = molecular target: T2, angiotensin-I-converting enzyme (ACE) (UniProt P12822)
T2 sequence: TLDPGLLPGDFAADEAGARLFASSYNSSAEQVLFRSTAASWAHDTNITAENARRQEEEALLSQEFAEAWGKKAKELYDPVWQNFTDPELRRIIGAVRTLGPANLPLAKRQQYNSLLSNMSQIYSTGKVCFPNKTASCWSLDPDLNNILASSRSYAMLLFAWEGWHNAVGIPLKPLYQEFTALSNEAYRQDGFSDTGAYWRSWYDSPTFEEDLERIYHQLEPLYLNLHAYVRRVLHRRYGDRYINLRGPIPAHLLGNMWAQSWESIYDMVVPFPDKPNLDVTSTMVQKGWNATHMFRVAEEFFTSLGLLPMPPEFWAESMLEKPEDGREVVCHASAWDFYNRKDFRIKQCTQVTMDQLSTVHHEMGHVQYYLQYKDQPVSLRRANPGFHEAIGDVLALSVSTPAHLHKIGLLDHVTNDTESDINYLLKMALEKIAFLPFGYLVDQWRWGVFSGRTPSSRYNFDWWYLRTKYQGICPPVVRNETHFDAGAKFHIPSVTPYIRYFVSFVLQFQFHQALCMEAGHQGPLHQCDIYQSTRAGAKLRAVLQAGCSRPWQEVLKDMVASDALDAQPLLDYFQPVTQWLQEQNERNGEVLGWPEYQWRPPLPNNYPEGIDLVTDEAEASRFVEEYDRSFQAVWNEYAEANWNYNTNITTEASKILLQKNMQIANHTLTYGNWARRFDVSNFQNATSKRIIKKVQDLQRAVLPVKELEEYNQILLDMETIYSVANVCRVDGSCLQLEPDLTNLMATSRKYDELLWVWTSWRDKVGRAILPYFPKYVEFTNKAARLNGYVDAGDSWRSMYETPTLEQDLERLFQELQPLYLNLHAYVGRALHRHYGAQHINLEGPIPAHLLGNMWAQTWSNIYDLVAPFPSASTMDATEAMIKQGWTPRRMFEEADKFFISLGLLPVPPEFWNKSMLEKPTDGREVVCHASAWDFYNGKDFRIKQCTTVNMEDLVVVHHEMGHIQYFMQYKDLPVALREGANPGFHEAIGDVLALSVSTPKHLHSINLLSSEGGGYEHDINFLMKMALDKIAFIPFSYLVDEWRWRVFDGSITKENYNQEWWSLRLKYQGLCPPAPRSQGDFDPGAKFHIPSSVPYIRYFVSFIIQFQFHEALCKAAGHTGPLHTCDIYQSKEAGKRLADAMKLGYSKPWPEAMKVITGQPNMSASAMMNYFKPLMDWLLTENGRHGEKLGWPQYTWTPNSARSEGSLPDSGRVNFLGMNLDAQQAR

ACE C-domain = tested on: ACE C-domain; parameters: method as in PMID 33340899; details: docking; cited from earlier work
ACE N-domain = tested on: ACE N-domain; parameters: method as in PMID 33340899; details: docking; cited from earlier work
HUVECs [4] = test: NO production in HUVECs; assay type: cell-based, human; details: 24 h; for NO level: control 34.41 ± 1.27
HUVECs [5] = test: ET-1 secretion of HUVECs; assay type: cell-based, human; details: 24 h; for ET-1 secretion: control 118.68 ± 0.53
Description: Skipjack tuna (K. pelamis) muscle was provided by Ningbo Today Food Co., Ltd (China). Sephadex G-25 resins and NO assay kit (Nitrate reductase approach, A012-1) were purchased from Nanjing Jiancheng Bioengineering Institute (China). ET-1 ELISA Kit (HM10108) was purchased from Shanghai Qiaodu Biotechnology Co. Ltd. (China).Trypsase (≥20,000 U/g), pepsase (≥500,000 U/g), papain (≥400,000 U/g), ACE (A6778) and N-[3-(2-Furyl) acryloyl]-Phe-Gly-Gly (FAPGG, F713) were purchased from Sigma-Aldrich (Shanghai) Trading Co., Ltd. (China). […] ACEi Peptides of (TMAP1-TMAP6) with purity higher than 98% were synthesized in Shanghai Apeptide Co. Ltd. (China).
The NO and ET-1 contents of HUVECs were determined after a 24 h treatment of ACEi peptides. […] NO and ET-1 production in treated cells were measured by employing human NO and ET-1 assay kit as manufactures’ protocol, separately.

Molecule: VKPLPQSG [larger peptide composed of 7–11 amino acid residues]
- interaction with ACE channel / active site (ACE [1]): showed low interaction scores

Molecule: LGPLGHQ [ACEi peptide from skate]
- IC50 (ACE [2]; skate peptides): 4.22 µM

Molecule: Tyr-Glu (YE) (peptide)
- IC50 of ACE inhibitory (ACEi) activity; enzyme assay with FAPGG as substrate, Tris-HCl 50 mM pH 8.3, 300 mM NaCl, 37 °C, product measured by HPLC [3]: 0.8 mg/mL

Molecule: LVLL [literature peptide docked to ACE]
- C-domain affinity (ACE C-domain): -8.6 kcal/mol
- N-domain affinity (ACE N-domain): -7.5 kcal/mol

Molecule: Ser-Pro (SP) (peptide)
- IC50 of ACE inhibitory (ACEi) activity; enzyme assay with FAPGG as substrate, Tris-HCl 50 mM pH 8.3, 300 mM NaCl, 37 °C, product measured by HPLC [3]: 0.06 mg/mL

Molecule: SPRCR [ACEi peptide with Ser residue]
- IC50 (ACE [2]): 41 µM

Molecule: C[C@H](CS)C(=O)N1CCC[C@H]1C(=O)O [Cap, captopril]
- NO level (HUVECs [4]; Cap positive control (1 μM per method), p < 0.001): 65.96 ± 1.83 μmol/gprot
- ET-1 secretion (HUVECs [5]; 0.5 μM Cap, p < 0.001): 84.16 ± 1.18 pg/mL

Molecule: TTMYPGIA [larger peptide composed of 7–11 amino acid residues]
- interaction with ACE channel / active site (ACE [1]): showed low interaction scores

Molecule: ALPMHIR [larger peptide composed of 7–11 amino acid residues]
- interaction with ACE channel / active site (ACE [1]): showed low interaction scores

Molecule: LAPPTM [ACEi peptide from stone fish]
- IC50 (ACE [2]; stone fish peptides): 1310 µM

Molecule: AGPPGSDGQPGA [ACEi peptide from lizardfish]
- IC50 (ACE [2]; lizardfish peptide): 544 µg/mL

Molecule: Phe-Glu-Met (FEM) (peptide)
- IC50 of ACE inhibitory (ACEi) activity; enzyme assay with FAPGG as substrate, Tris-HCl 50 mM pH 8.3, 300 mM NaCl, 37 °C, product measured by HPLC [3]: 2.18 mg/mL

Molecule: EHPVL [ACEi peptide from stone fish]
- IC50 (ACE [2]; stone fish peptides): 1680 µM

Molecule: GPAGPRGPAG [larger peptide composed of 7–11 amino acid residues]
- interaction with ACE channel / active site (ACE [1]): showed low interaction scores

Molecule: AVVPPSDKM [larger peptide composed of 7–11 amino acid residues]
- interaction with ACE channel / active site (ACE [1]): showed low interaction scores

Molecule: HWTTQR [ACEi peptide from seaweed pipefish]
- IC50 (ACE [2]; seaweed pipefish peptide): 1440 µM

Molecule: VSQLTR [ACEi peptide with Ser residue]
- IC50 (ACE [2]): 105 µM

Molecule: YVVF [literature peptide docked to ACE]
- C-domain affinity (ACE C-domain): -9.8 kcal/mol
- N-domain affinity (ACE N-domain): -8.8 kcal/mol

Molecule: NC[C@H](O)c1ccc(O)c(O)c1 [NE, norepinephrine]
- NO level (HUVECs [4]; NE 0.5 μM, p < 0.001): 24.25 ± 0.63 μmol/gprot
- ET-1 secretion (HUVECs [5]; NE 0.5 μM, p < 0.01): 140.23 ± 5.81 pg/mL

Molecule: N[C@@H](CO)C(=O)N1CCC[C@H]1C(=O)O [TMAP1, Ser-Pro] (H-Ser-Pro-OH)
- reversal of NE-reduced NO content (HUVECs [4]; 200 μM peptide with NE (0.5 μM), p < 0.001 vs NE): partially offset
- NO level (HUVECs [4]; 400 μM, p < 0.001): 57.25 ± 2.31 μmol/gprot
- NO level vs control group (HUVECs [4]; 100, 200 and 400 μM, p < 0.001): significantly increased
- ET-1 secretion with NE (HUVECs [5]; 200 μM peptide with NE (0.5 μM), NE alone 140.23 ± 5.81, p < 0.01): 114.08 ± 5.82 pg/mL
- ET-1 secretion (HUVECs [5]; 400 μM): 94.86 ± 0.39 pg/mL
- ET-1 secretion vs control group (HUVECs [5]; tested concentrations (100–400 μM), p < 0.001 or p < 0.01): decreased

Molecule: MVGSAPGVL [ACEi peptide from skate]
- IC50 (ACE [2]; skate peptides): 3.09 µM

Molecule: EVLIQ [ACEi peptide from stone fish]
- IC50 (ACE [2]; stone fish peptides): 1440 µM

Molecule: VDRYF [Val-Asp-Arg-Tyr-Phe (VDRYF)]
- IC50 of ACE inhibitory (ACEi) activity; enzyme assay with FAPGG as substrate, Tris-HCl 50 mM pH 8.3, 300 mM NaCl, 37 °C, product measured by HPLC [3]: 0.28 mg/mL

Molecule: FWRV [Phe-Trp-Arg-Val (FWRV)]
- IC50 of ACE inhibitory (ACEi) activity; enzyme assay with FAPGG as substrate, Tris-HCl 50 mM pH 8.3, 300 mM NaCl, 37 °C, product measured by HPLC [3]: 0.76 mg/mL

Molecule: VHGVV [Val-His-Gly-Val-Val (VHGVV)]
- IC50 of ACE inhibitory (ACEi) activity; enzyme assay with FAPGG as substrate, Tris-HCl 50 mM pH 8.3, 300 mM NaCl, 37 °C, product measured by HPLC [3]: 0.9 mg/mL
